Experimental data: patent publication US8658357B2, “Orotate transporter encoding marker genes” (Novozymes A/S, priority 2004, dated 2014)

Columns and labels:
[1] = system: L. lactis NCDO712 and MG1363; experiment: Screening for FOA sensitivity by streaking on SA-glucose plates with FOA; format: cell-based, Lactococcus lactis ssp. cremoris
Protocol: Lactococcal cultures were grown at 30° C. either in M17 broth (Terzaghi and Sandine, 1975) or in minimal SA-medium (Jensen and Hammer, 1993) supplemented with 0.5% and 1% glucose, respectively. E. coli strains were grown at 37° C. either in Luria-Bertani (LB) broth or in minimal ABTG medium (Clark and Maaløe, 1967). B. subtilis strains were grown at 37° C. either in LB medium or in minimal MM medium. Agar plates were made by adding […] agar to the broth medium. If necessary, the following supplements were added to the different media: orotate at 20 micro-g/ml, uracil at 20 micro-g/ml, 5-fluoroorotate (FOA) at 20 micro-g/ml, erythromycin at 5 micro-g/ml, chloramphenicol at 5 micro-g/ml for lactococci and 20 micro-g/ml for E. coli, ampicillin at 100 micro-g/ml.
QIAGEN™ purified plasmid DNA of pED210 and pCI3440 was introduced into competent NCDO712 and MG1363 cells by electroporation, and transformants harboring either plasmid pED210 or pCI3440 were selected at 30° C. on SR plates supplemented with 5 micro-g/ml chloramphenicol. Transformants harboring either pED210 or pCI3440 were screened for FOA sensitivity by streaking them on SA-glucose plates with 20 micro-g/ml FOA, and incubation overnight at 30° C.

[2] = system: E. coli XL1-Blue; experiment: Screening for fluoroorotate sensitivity by streaking on ABTG plates; format: cell-based, Escherichia coli
Protocol: QIAGEN™-purified plasmid DNA of pED301 (ysbC), or pDG268 (negative control) was introduced into competent XL1-Blue cells by the heat shock procedure, and transformants harboring plasmid pED301 or pDG268 were selected at 37° C. on LB plates supplemented with 100 micro-g/ml ampicillin. Transformants were screened for fluoroorotate sensitivity by streaking them on ABTG plates without or with 20 micro-g/ml fluoroorotate and incubation overnight at 37° C.

[3] = system: B. subtilis HH263 derived strains ED344 and ED348; experiment: FOA sensitivity by streaking on selective MM plates; format: cell-based, Bacillus subtilis
Protocol: The resulting strains were denoted ED344 (HH263 amyE::pDG268) and ED348 (HH263 amyE::pED301). ED344 and ED348 were streaked on selective MM plates containing 5 micro-g/ml neomycine, one with 20 micro-g/ml FOA, and one without. The screening plates were incubated overnight at 37° C.

SMILES: O=C(O)c1[nH]c(=O)[nH]c(=O)c1F [FOA, 5-fluoroorotate]
- FOA resistance/sensitivity (growth) ([1]; L. lactis strain ED79.1175 (MG1363 ΔpyrDa ΔpyrDb)): resistant
- FOA resistance/sensitivity (growth) ([1]; NCDO712 and MG1363 containing plasmid pED210 (ysbC), 20 micro-g/ml FOA, SA-glucose plates, overnight 30° C.): sensitive
- FOA resistance/sensitivity (growth) ([1]; NCDO712 and MG1363 containing vector pCI3440 (control), 20 micro-g/ml FOA, SA-glucose plates, overnight 30° C.): resistant
- FOA resistance/sensitivity (growth) ([1]; untransformed L. lactis NCDO712 and MG1363): resistant
- FOA resistance/sensitivity (growth) ([2]; XL1-Blue harbouring pED301 (ysbC), 20 micro-g/ml fluoroorotate, ABTG plates, overnight 37° C.): sensitive
- FOA resistance/sensitivity (growth) ([2]; untransformed E. coli XL1-Blue): resistant
- FOA resistance/sensitivity (growth) ([3]; ED344 (HH263 amyE::pDG268, control), 20 micro-g/ml FOA, MM plates, overnight 37° C.): resistant
- FOA resistance/sensitivity (growth) ([3]; ED348 (HH263 amyE::pED301, ysbC), 20 micro-g/ml FOA, MM plates, overnight 37° C.): sensitive
- FOA resistance/sensitivity (growth) ([3]; untransformed B. subtilis HH263 (168 trpC2)): resistant
